According to BindingDB's records for patent US20260028337 (Shenzhen Zhongge Biological Technology, 2026):

Target: T1, Interleukin-1 receptor-associated kinase 4 (Homo sapiens, UniProt Q9NWZ3)
T1 sequence (Q9NWZ3 whole entry): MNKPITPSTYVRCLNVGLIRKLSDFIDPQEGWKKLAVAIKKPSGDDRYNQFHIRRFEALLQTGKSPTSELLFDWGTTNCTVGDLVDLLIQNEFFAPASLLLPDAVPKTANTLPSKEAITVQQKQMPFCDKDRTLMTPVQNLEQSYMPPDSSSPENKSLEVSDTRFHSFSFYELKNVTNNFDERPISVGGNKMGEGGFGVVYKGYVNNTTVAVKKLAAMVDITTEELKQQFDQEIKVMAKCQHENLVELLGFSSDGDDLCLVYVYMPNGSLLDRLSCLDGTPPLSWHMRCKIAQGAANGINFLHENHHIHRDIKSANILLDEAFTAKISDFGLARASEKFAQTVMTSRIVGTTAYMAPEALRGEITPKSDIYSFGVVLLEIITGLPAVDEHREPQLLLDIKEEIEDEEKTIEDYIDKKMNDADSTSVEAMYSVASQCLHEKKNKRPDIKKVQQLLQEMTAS
Experiment: IRAK4 Kinase Inhibition Assay
Method: In this assay, Cisbio HTRF KinEASE-STK SI kit (62S 1 PEB) was used, in which assay/detection buffer, STK Substrate 1-biotin, Streptavidin-XL665, STK Antibody-Cryptate were contained. After adding compound/DMSO to a 384-well plate (PerkinElmer 6008280) using Echo 665, 5 μL of 2-fold reaction concentration of IRAK4 kinase protein (final concentration: 10 nM) dissolved with assay buffer [1 volume of 5× kinase buffer+20 mM magnesium chloride (Sigma) solution+1 mM DTT (Alfa Aesar) solution+4 volumes deionized water] was added, followed by sealing the shallow well plate, shaking and then centrifuging at 1000 rpm for 1 min, and incubating at room temperature for 5 min; then 5 μL of 2-fold reaction concentration of a 1:1 mixture of STK Substrate 1-biotin (final concentration: 1 μM) and ATP (Sigma A1852) (final concentration: 200 μM) formulated with assay buffer was added, followed by sealing the shallow well plate, shaking and then centrifuging at 1000 rpm for 1 min, and incubating at 37° C. for 2 h, and then 10 μL of a 1:1 mixture of Streptavidin-XL665 (final concentration: 62.5 nM) and STK-antibody-cryptate dissolved with detection buffer was added, followed by sealing the shallow well plate, shaking and then centrifuging at 1000 rpm for 1 min, and incubating at room temperature for 1 h, and thereafter reading the value at the wavelength of 620 nm/665 nm using a microplate reader.

OCC1CCC(n2cc(-n3cc(-c4cnn5ccc(C6CCOC6)nc45)nn3)c(C(F)F)n2)CC1 (stereo unspecified) [US20260028337, Compound 98A]
IC50: < 100 nM
